# In patent US20140309184A1, “METHODS AND COMPOSITIONS FOR THE TREATMENT OF OVARIAN CANCER” (UNIVERSITY OF SOUTH ALABAMA, priority 2011, published 2014):
# “Also recorded” adds a separate entry of the source.
# Assays:
# Assay type in all cases: cell-based
# A2780/CP70 cells = assay: Carboplatin IC50 with and without BMS-833923 in platinum resistant cell line; conditions: A2780/CP70, addition of BMS-833923 at 5 μM
# Procedure: Considering the synergy described above and that the Hedgehog pathway is associated with cancer stem cell properties. In the effect of BMS-833923 plus carboplatin in two isogenic ovarian cancer cell lines specifically designed to evaluate platinum resistance mechanisms: A2780 (platinum sensitive) & A2780/CP70 (platinum resistant). Each cell line was evaluated to determine the IC50 dose of carboplatin to ensure a discernable difference in platinum treatment could be determined (FIG. 11A). The A2780/CP70 cell line required a 4-fold increase in carboplatin to reach IC50 (A2780/CP70=400 μM; A2780=100 μM). […] (FIG. 11B and FIG. 11C).
# PTCH = assay: Quantitative RT-PCR of Hedgehog pathway mediators in SKOV3 cells
# Procedure: (§1) Total RNA was isolated using Trizol reagent from ovarian cancer cell line monolayer and spheroids-forming cells according to the manufacturer instructions (Invitrogen Corporation, Carlsbad, Calif.) and cDNA was prepared using High Capacity Reverse Transcriptase Kit (Applied Biosystem, Foster City, Calif.). Real-time PCR was performed using a Bio-Rad iQ5 Real-time Detection system (Bio-Rad). All reactions were done as three independent replicates. All assays were done using the TaqMan Gene Expression Assays from Applied Biosystems. Primers and probes for the TaqMan system were selected from the Applied Biosystems website. [Gli1 assay ID: Hs01110766 ml, Patched (PTCH) assay ID: Hs00970980 ml. The relative expression mRNA levels of GLI1, and PTCH were normalized to internal control glyceraldehyde-3-phosphate dehydrogenase (assay ID: Hs99999905 ml) levels (2^−δδCT).
# (§2) Quantitative realtime PCR (RT-PCR) was performed as described above. To assess the effects of inhibition of SMO by BMS-833923, levels of GLI1 and PTCH were measured by quantitative RT-PCR. SKOV3 ovarian cancer cell line was treated with 2.5 μM BMS-833923 for 24 hr and 48 hr and compared to untreated controls.
# GLI1 [1] = assay: as above
# Procedure: as §1, §2
# GLI1 [2] = assay: Localization of Gli1 by immunofluorescent staining in SKOV3 cells; conditions: SKOV3, 24 hours treatment
# Procedure: Considering intranuclear Gli1 confers an activated Hh pathway, SKOV3 cells were evaluated for Gli1 location after BMS-833923 treatment and compared to control (no treatment). Cells were grown on Poly-L-Lysine coated Glass Coverslips (BD Bioscience) for overnight, then incubated with 5 μM BMS-833923 for 24 hours, respectively, fixed in 4% paraformaldehyde for 15 minutes at room temperature, washed with PBS and permeabilized with 0.25% Triton X-100 (Sigma) for 10 minutes. Primary antibody (Anti-human Gli1 antibody, Santa Cruz Biotechnology, Inc.) incubation followed for overnight at 4° C. After washing thoroughly with PBS, cells were further probed with secondary antibody (anti-rabbit IgG-FITC, Sigma) for one hour at room temperature. Nuclei were counterstained with diluted DAPI (Sigma) for 3 minutes before mounting and analyzing with microscope.
# SKOV3 cells were treated with 2.5 μBMS-833923 and the cellular location of Gli1 determined at various times using immunofluorescence. Immunofluorescence analysis was performed as described above. In untreated control cell, Gli1 is concentrated in the nucleus at 24 hrs, indicating an activated Hh pathway. […] Both indicating restriction of Gli1 from the nucleus and inhibition of Hh pathway.
# SKOV3 cells = assay: MTS cell survival with BMS-833923 plus chemotherapy, Calcusyn combination index
# Procedure: An MTS in vitro assay was performed using chemotherapy agents commonly used for ovarian cancer (carboplatin, paclitaxel, gemcitabine, topotecan and liposomal doxorubicin) with or without BMS-833923. Ovarian cancer cells ES2, SKOV3, OV90 and TOV112D were seeded at a density of 4,000 cells/well in 96-well tissue culture plates. The following day, fresh medium was added to each well and treated with IC50 concentrations of BMS-833923 as well as the aforementioned chemotherapies and kept at 37° C. in a humidified 5% CO2 atmosphere. Every 24 hr, 20 μl/well of MTS reagent were added in 96 well plates and stored in 37° C. incubator for about 3 hr followed by absorbance reading at 490 nm. The assay was carried out up to 72 hrs at various concentrations described herein.
# With a cross-diagonal multidrug treatment design, the combination index (CI) was calculated to determine mathematical synergy using the median effect method per Calcusyn software (Biosoft, Ferguson, Mo.). This software utilizes multiple drug dose-effect calculations using the Median Effect methods (Chou T. C., et al., Trends Pharmacol. Sci. 4, 450-454). […] The fraction of cells affected (Fa) by carboplatin and BMS-833923 was used to calculate dose response curves and the CI. Statistically Calcusyn quantifies phenomena such as synergism vs. additive effects as well as inhibition (antagonism). Calcusyn software defines synergy as a CI value<1 with the extent of synergism stratified as follows: Possible Synergy: 1.0-0.91; Moderate Synergy: […]; and Clear Synergy: 0.7-0.3. A CI=1 may be indicative of additivity; a CI>1 may be indicative of antagonism.
# Combination indices were calculated to determine mathematical synergy using the median effect method per Calcusyn software (Biosoft, Ferguson, Mo.) as described above. Monolayers of SKOV3 cells were contacted with various chemotherapeutic agents, and BMS-833923 in combination with various chemotherapeutic agents. The chemotherapeutic agents included Carboplatin, Taxol™, Gemzar™, Topotecan (Hycamtim™), and Doxil™. The percentage survival of the contacted SKOV3 cells was measured over 72 hours. Synergistic effects were calculated statistically using Calcusyn™ Software. A combination index (CI) less than 1 indicates synergy; a CI equal to 1 indicates additivity; a CI greater than 1 indicated antagonism.
# Combination indices were calculated to determine mathematical synergy using the median effect method per Calcusyn software (Biosoft, Ferguson, Mo.) as described above. […] Per prior definitions this represents Clear Synergy defined as CI<0.7. This level of synergy would result in a 2- to 14-fold reduction of carboplatin dose required with the addition of BMS-833923. (Table 5 and FIG. 9).
# The dose reduction index (DRI) was determined for experimental values using the Calcusyn software package, with the relative CI and the fraction affected to determine the relative reduction in a dose to achieve similar effects with a single agent (Table 6).
compound,measurement,setting,value
"CNCc1ccc(C)c(NC(=O)c2ccc(Nc3nc(-c4ccccc4)c4ccccc4n3)cc2)c1 [BMS-833923, N-{2-methyl-5-[(methylamino)methyl]phenyl}-4-[(4-phenylquinazolin-2-yl)amino]benzamide]",reduction of platinum needed to achieve the same cell death,A2780/CP70 cells,10 fold
same,PTCH activity compared to untreated controls,"PTCH; SKOV3, 2.5 μM, 24 hr and 48 hr",down-regulation in activity
same,downregulation of PTCH protein compared to untreated controls,PTCH; as stated in the description,3 fold
same,decrease in GLI1 activity (RTQ),"GLI1 [1]; SKOV3, 2.5 μM, 24 hr and 48 hr, vs untreated",10 fold
same,downregulation of GLI1 protein compared to untreated controls,GLI1 [1]; as stated in the description,5 fold
same,cellular location of Gli1,GLI1 [2],near complete exclusion of intranuclear GLl1; also recorded: Gli1 being excluded from the nucleus
same,BMS-833923 DRI,SKOV3 cells; fraction affected 16.6%,2.314
same,BMS-833923 single agent dose to achieve the fraction affected,SKOV3 cells; fraction affected 16.6%,9.2573 µM
same,BMS-833923 DRI,SKOV3 cells; fraction affected 29.1%,3.223
same,BMS-833923 single agent dose to achieve the fraction affected,SKOV3 cells; fraction affected 29.1%,12.8916 µM
same,BMS-833923 DRI,SKOV3 cells; fraction affected 38.4%,3.120
same,BMS-833923 single agent dose to achieve the fraction affected,SKOV3 cells; fraction affected 38.4%,15.6024 µM
same,BMS-833923 DRI,SKOV3 cells; fraction affected 41.8%,3.330
same,BMS-833923 single agent dose to achieve the fraction affected,SKOV3 cells; fraction affected 41.8%,16.6516 µM
